The compounds below were run against T1, HDAC6 enzyme (Homo sapiens, UniProt Q9UBN7) (assay: HDAC6 enzyme inhibitory assay (HDAC-Glo I/II Assay kit, luminescence)). Settings: 10 μM test compound; wells without enzyme = 100% inhibition; 10 µM.
T1 construct: prepared by transducing full length HDAC6 gene into Sf-9 insect cells; GST; purchased SignalChem; host or cells: Sf-9 insect cells
T1 sequence (Q9UBN7 1-1215): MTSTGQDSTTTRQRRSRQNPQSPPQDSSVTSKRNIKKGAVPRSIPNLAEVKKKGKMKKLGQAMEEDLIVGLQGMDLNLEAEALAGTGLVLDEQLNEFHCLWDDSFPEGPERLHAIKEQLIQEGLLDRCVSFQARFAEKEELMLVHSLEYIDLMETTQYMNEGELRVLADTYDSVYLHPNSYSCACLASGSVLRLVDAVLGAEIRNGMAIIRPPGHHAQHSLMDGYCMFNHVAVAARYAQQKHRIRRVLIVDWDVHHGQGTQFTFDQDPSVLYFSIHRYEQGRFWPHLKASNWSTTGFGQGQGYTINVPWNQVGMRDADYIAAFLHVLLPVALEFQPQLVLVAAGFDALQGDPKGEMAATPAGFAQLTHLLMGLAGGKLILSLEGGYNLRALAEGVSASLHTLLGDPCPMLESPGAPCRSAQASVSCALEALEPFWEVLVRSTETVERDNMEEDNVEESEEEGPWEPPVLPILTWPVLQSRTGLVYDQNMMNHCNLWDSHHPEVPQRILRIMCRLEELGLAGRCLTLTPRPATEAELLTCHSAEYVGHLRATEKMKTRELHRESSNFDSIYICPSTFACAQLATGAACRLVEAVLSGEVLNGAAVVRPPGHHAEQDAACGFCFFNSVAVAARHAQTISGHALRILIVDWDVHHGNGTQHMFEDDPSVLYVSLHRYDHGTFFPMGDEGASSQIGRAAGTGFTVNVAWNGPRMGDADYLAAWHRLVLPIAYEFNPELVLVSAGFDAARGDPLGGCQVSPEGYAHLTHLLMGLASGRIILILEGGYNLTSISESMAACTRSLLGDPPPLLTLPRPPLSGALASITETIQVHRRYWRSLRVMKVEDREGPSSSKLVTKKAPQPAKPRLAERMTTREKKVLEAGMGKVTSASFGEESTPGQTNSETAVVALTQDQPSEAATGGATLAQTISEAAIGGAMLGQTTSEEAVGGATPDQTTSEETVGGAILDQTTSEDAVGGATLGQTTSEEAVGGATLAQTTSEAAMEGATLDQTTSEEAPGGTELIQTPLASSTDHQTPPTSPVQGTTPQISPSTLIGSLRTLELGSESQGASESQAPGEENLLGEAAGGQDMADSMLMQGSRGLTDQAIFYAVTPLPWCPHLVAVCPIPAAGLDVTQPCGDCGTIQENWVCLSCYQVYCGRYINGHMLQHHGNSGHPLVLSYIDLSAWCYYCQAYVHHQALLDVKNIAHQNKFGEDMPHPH
Type: biochemical
Procedure: HDAC6 Enzyme Inhibitory Assay
HDAC6 enzyme prepared by transducing full length HDAC6 gene into Sf-9 insect cells and purifying by GST affinity column were purchased from SignalChem. Using this enzyme, HDAC6 enzyme inhibitory activities of the compound of the present invention were evaluated. Enzymes were used after preserved at −70° C. HDAC6 enzyme inhibitory activity of the compound of the present invention was measured using HDAC-Glo™ I/II Assay kit (Promega) according to the following experimental method. The test compound diluted with assay buffer (24 mM Tris-HCl (pH 7.5), 1 mM MgCl2, 0.35 mM KCl, 135 mM NaCl, 0.6 mM Glutathione, 0.01% Tween-20) was added to a 384-well plate by each 2 μL. Then, HDAC6 enzyme solution diluted with assay buffer was added thereto by each 4 μL, and the plate was incubated at room temperature for 60 min. After incubated, HDAC substrate-Developer solution prepared according to Promega protocol attached to the assay kit was added to the 384-well plate by each 2 μL, and the enzyme reaction was started. After reacting at room temperature for 20 min, luminescence level was measured using plate reader Envision (PerkinElmer). The inhibitory activity of each compound of Example was calculated as a relative activity value when luminescence level in wells without enzyme is considered as 100% inhibition.

Row | HDAC6 inhibitory rate (%) (10 μM) | Structure (SMILES)
1 | 99% | CN1C(=O)c2cc(-c3nnc(C(F)F)o3)ccc2CC1(C)c1ccc(F)cc1 (single isomer, unassigned; isomer 2) [Example 24b, 7-[5-(difluoromethyl)-1,3,4-oxadiazol-2-yl]-3-(4-fluorophenyl)-2,3-dimethyl-3,4-dihydroisoquinolin-1(2H)-one (optical isomer 2)]
2 | 93% | CN1C(=O)c2cc(-c3nnc(C(F)F)o3)ccc2CC1c1ccc(F)cc1 (single isomer, unassigned; isomer 2) [Example 42b, 7-[5-(difluoromethyl)-1,3,4-oxadiazol-2-yl]-3-(4-fluorophenyl)-2-methyl-3,4-dihydroisoquinolin-1(2H)-one (optical Isomer 2)]

Same assay, conditions: 10 μM test compound; wells without enzyme = 100% inhibition; read-out: HDAC6 inhibitory rate (%) (10 μM)

Row | Structure (SMILES) | inhibition at 10 µM
3 | FC(F)c1nnc(-c2cccc(-n3nccc3C3CC3)c2)o1 [Example 2a, 2-[3-(5-cyclopropyl-1H-pyrazol-1-yl)phenyl]-5-(difluoromethyl)-1,3,4 oxadiazole] | 104%
4 | O=C1c2cc(-c3nnc(C(F)F)o3)ccc2CN1NC1CCC(F)(F)CC1 [Example 35c, 2-[(4,4-difluorocyclohexyl)amino]-6-[5-(difluoromethyl)-1,3,4-oxadiazol-2-yl]-2,3-dihydro-1H-isoindol-1-one] | 93%
5 | CC(C)CN(C(=O)OC(C)(C)C)N1Cc2ccc(-c3nnc(C(F)F)o3)cc2C1=O [Example 5c, tert-butyl {6-[5-(difluoromethyl)-1,3,4-oxadiazol-2-yl]-1-oxo-1,3-dihydro-2H-isoindol-2-yl}(2-methylpropyl)carbamate] | 99%
6 | CN(Cc1cccc2cnccc12)N1Cc2ccc(-c3nnc(C(F)F)o3)cc2C1=O [Example 47c, 6-[5-(difluoromethyl)-1,3,4-oxadiazol-2-yl]-2-{[(isoquinolin-5-yl)methyl](methyl)amino}-2,3-dihydro-1H-isoindol-1-one] | 100%
7 | O=C1c2cc(-c3nnc(C(F)F)o3)ccc2CN1N(Cc1ccc(F)cc1)Cc1ccc(F)cc1 [Example 7c, 2-{bis[(4-fluorophenyl)methyl]amino}-6-[5-(difluoromethyl)-1,3,4-oxadiazol-2-yl]-2,3-dihydro-1H-isoindol-1-one] | 100%
8 | CN1C(=O)c2cc(-c3nnc(C(F)F)o3)ccc2OC1(C)c1ccccc1 (stereo not shown) [Example 4b, 6-[5-(difluoromethyl)-1,3,4-oxadiazol-2-yl]-2,3-dimethyl-2-phenyl-2,3-dihydro-4H-1,3-benzoxazin-4-one] | 99%
9 | O=C1c2cc(-c3nnc(C(F)F)o3)ccc2CN1N(CC1CCOCC1)CC1CCOCC1 [Example 18c, 2-{bis[(oxan-4-yl)methyl]amino}-6-[5-(difluoromethyl)-1,3,4-oxadiazol-2-yl]-2,3-dihydro-1H-isoindol-1-one] | 99%
10 | O=C1c2cc(-c3nnc(C(F)F)o3)ccc2CN1NCCc1ccc(F)cc1F [Example 19c, 6-[5-(difluoromethyl)-1,3,4-oxadiazol-2-yl]-2-{[2-(2,4-difluorophenyl)ethyl]amino}-2,3-dihydro-1H-isoindol-1-one] | 98%
11 | O=C1c2cc(-c3nnc(C(F)F)o3)ccc2CN1Nc1c(F)c(F)c(F)c(F)c1F [Example 32c, 6-[5-(difluoromethyl)-1,3,4-oxadiazol-2-yl]-2-(pentafluoroanilino)-2,3-dihydro-1H-isoindol-1-one] | 95%

Results, then the compound that gave them:

Row | inhibition at 10 µM | Structure (SMILES)
12 | 99% | O=C1c2cc(-c3nnc(C(F)F)o3)ccc2CN1NCc1ccc(F)cn1 [Example 15c, 6-[5-(difluoromethyl)-1,3,4-oxadiazol-2-yl]-2-{[(5-fluoropyridin-2-yl)methyl]amino}-2,3-dihydro-1H-isoindol-1-one]
13 | 99% | FC(F)c1nnc(-c2ccnc(-c3nccn3Cc3ccccn3)c2)o1 [Example 3a, 4-[5-(difluoromethyl)-1,3,4-oxadiazol-2-yl]-2-{1-[(pyridin-2-yl)methyl]-1H-imidazol-2-yl}pyridine]
14 | 100% | Cn1ccc(OC2CCOCC2)c(-c2cc(F)cc(-c3nnc(C(F)F)o3)c2)c1=O [Example 53a, 3-{3-[5-(difluoromethyl)-1,3,4-oxadiazol-2-yl]-5-fluorophenyl}-1-methyl-4-[(oxan-4-yl)oxy]pyridin-2(1H)-one]
15 | 98% | COc1cncc(Cn2ccnc2-c2cc(F)cc(-c3nnc(C(F)F)o3)c2)n1 [Example 58a, 2-[(2-{3-[5-(difluoromethyl)-1,3,4-oxadiazol-2-yl]-5-fluorophenyl}-1H-imidazol-1-yl)methyl]-6-methoxypyrazine]
16 | 99% | N#Cc1ccc(Cn2ccnc2-c2cc(-c3nnc(C(F)F)o3)ccn2)cc1F [Example 75a, 4-[(2-{4-[5-(difluoromethyl)-1,3,4-oxadiazol-2-yl]pyridin-2-yl}-1H-imidazol-1-yl)methyl]-2-fluorobenzonitrile]
17 | 104% | COc1ccc(Cn2ccnc2-c2cc(-c3nnc(C(F)F)o3)ccn2)cc1 [Example 80a, 4-[5-(difluoromethyl)-1,3,4-oxadiazol-2-yl]-2-{1-[(4-methoxyphenyl)methyl]-1H-imidazol-2-yl}pyridine]
18 | 68% | O=C1COCC(Cc2ccccn2)N1c1cc(F)cc(-c2nnc(C(F)F)o2)c1 (stereo not shown) [Example 42a]
19 | 97% | Fc1cccc(Cc2ncnn2-c2cc(-c3nnc(C(F)F)o3)ccn2)c1 [Example 89a, 4-[5-(difluoromethyl)-1,3,4-oxadiazol-2-yl]-2-{5-[(3-fluorophenyl)methyl]-1H-1,2,4-triazol-1-yl}pyridine]
20 | 94% | Fc1cc(-c2nnc(C(F)F)o2)cc(-c2ncccc2OCc2ccccn2)c1 [Example 11a, 2-{3-[5-(difluoromethyl)-1,3,4-oxadiazol-2-yl]-5-fluorophenyl}-3-[(pyridin-2-yl)methoxy]pyridine]
21 | 100% | N#Cc1cc(Cn2ccnc2-c2cc(-c3nnc(C(F)F)o3)ccn2)ccc1F [Example 1a, 5-[(2-{4-[5-(difluoromethyl)-1,3,4-oxadiazol-2-yl]pyridin-2-yl}-1H-imidazol-1-yl)methyl]-2-fluorobenzonitrile]
22 | 99% | Fc1cccc(Cc2ccnn2-c2cc(-c3nnc(C(F)F)o3)ccn2)c1 [Example 87a, 4-[5-(difluoromethyl)-1,3,4-oxadiazol-2-yl]-2-{5-[(3-fluorophenyl)methyl]-1H-pyrazol-1-yl}pyridine]
23 | 100% | Cc1nc(Cn2ccnc2-c2cc(F)cc(-c3nnc(C(F)F)o3)c2)sc1C [Example 65a, 2-(difluoromethyl)-5-(3-{1-[(4,5-dimethyl-1,3-thiazol-2-yl)methyl]-1H-imidazol-2-yl}-5-fluorophenyl)-1,3,4-oxadiazole]
24 | 99% | CN(Cc1ccc(F)cc1)N1Cc2ccc(-c3nnc(C(F)F)o3)cc2C1=O [Example 28c, 6-[5-(difluoromethyl)-1,3,4-oxadiazol-2-yl]-2-{[(4-fluorophenyl)methyl](methyl)amino}-2,3-dihydro-1H-isoindol-1-one]
25 | 98% | Fc1cc(-c2nnc(C(F)F)o2)cc(-c2nccn2Cc2cncnc2)c1 [Example 25a, 5-[(2-{3-[5-(difluoromethyl)-1,3,4-oxadiazol-2-yl]-5-fluorophenyl}-1H-imidazol-1-yl)methyl]pyrimidine]

Source: US12084436B2, “Heterocyclic compound” (Takeda Pharmaceutical Company Limited, priority 2019, dated 2024)
